Assay results reported in patent US9695155B2, “Herbicidal substituted pyrimidinyloxy benzene compounds” (E. I. DU PONT DE NEMOURS AND COMPANY, priority 2013, dated 2017).

Assays:
field violet = test: Test D preemergence; type: in vivo, Viola arvensis; details: Viola arvensis, pre-emergence
How it was run: (§1)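 Visual rating vs untreated controls, 0 = no effect, 100 = complete control, taken 7–21 d after treatment. Pre: silt loam soil. Post: potting medium, plants 2–18 cm, 1–4 leaf. Formulation: non-phytotoxic solvent mix + surfactant.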

kochia = test: Test D preemergence; type: in vivo, Kochia scoparia; details: Bassia scoparia, pre-emergence
How it was run: as §1

lambsquarters [1] = test: Test D preemergence; type: in vivo, Chenopodium album; details: Chenopodium album, pre-emergence
How it was run: as §1

pigweed [2] = test: Test D preemergence; type: in vivo, Amaranthus retroflexus; details: Amaranthus retroflexus, pre-emergence
How it was run: as §1

wild buckwheat = test: Test D preemergence; type: in vivo, Polygonum convolvulus; details: Fallopia convolvulus, pre-emergence
How it was run: as §1

wild oat = test: Test D preemergence; type: in vivo, Avena fatua; details: Avena fatua, pre-emergence
How it was run: as §1

chickweed = test: Test D postemergence; type: in vivo, Stellaria media; details: Stellaria media, post-emergence
How it was run: as §1

lambsquarters [3] = test: Test D postemergence; type: in vivo, Chenopodium album; details: Chenopodium album, post-emergence
How it was run: as §1

pigweed [4] = test: Test D postemergence; type: in vivo, Amaranthus retroflexus; details: Amaranthus retroflexus, post-emergence
How it was run: as §1

chamomile = test: Test D postemergence; type: in vivo, Matricaria inodora; details: Tripleurospermum inodorum, post-emergence
How it was run: as §1

speedwell = test: Test D postemergence; type: in vivo, Veronica persica; details: Veronica persica, post-emergence
How it was run: as §1

large (Lg) crabgrass = test: Test F preemergence; type: in vivo, Digitaria sanguinalis; details: 21 days, scale 0 to 100
How it was run: (§2)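 Greenhouse test: soil (loam with sand) seeded, then sprayed preemergence using a surfactant-containing non-phytotoxic solvent formulation. At day 21, response judged visually relative to controls, where 0 means no effect and 100 means full control.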

foxtail, green = test: Test F preemergence; type: in vivo, Setaria viridis; details: 21 days, scale 0 to 100
How it was run: as §2

signalgrass = test: Test F preemergence; type: in vivo, Brachiaria platyphylla; details: 21 days, scale 0 to 100
Description: (§3) Seeds of plant species selected from bermudagrass (Cynodon dactylon), surinam grass (Brachiaria decumbens), large (Lg) crabgrass (Digitaria sanguinalis), crabgrass, naked (naked crabgrass, Digitaria nuda), foxtail, green (green foxtail, Setaria viridis), johnsongrass (Sorghum halepense), kochia (Kochia scoparia), morningglory (pitted morningglory, Ipomoea lacunosa), nutsedge, purple (purple nutsedge, Cyperus rotundus), ragweed (common ragweed, Ambrosia elatior), mustard, black (black mustard, Brassica nigra), guineagrass (Panicum maximum), dallisgrass (Paspalum dilatatum), barnyardgrass (Echinochloa crus-galli), sandbur (southern sandbur, Cenchrus echinatus), sowthistle (common sowthistle, Sonchus oleraceous), Italian ryegrass (Lolium multiflorum), signalgrass (broadleaf signalgrass, Brachiaria platyphylla), dayflower (Virginia (VA) dayflower, Commelina virginica), bluegrass (annual bluegrass, Poa annua), quackgrass (Elytrigia repens), mallow (common mallow, Malva sylvestris), buckwheat, wild (wild buckwheat, Polygonum convolvulus), leafy spurge (Euphorbia esula), chickweed (common chickweed, Stellaria media), wild poinsettia (Euphorbia heterophylla), and pigweed (Amaranthus retroflexus) were planted into a blend of loam soil and sand and treated preemergence with test chemicals formulated in a non-phytotoxic solvent mixture which included a surfactant.
(§4) Treated plants and controls were maintained in a greenhouse for 21 days, after which time all species were compared to controls and visually evaluated. Plant response ratings, summarized in Table F, are based on a scale of 0 to 100 where 0 is no effect and 100 is complete control. A dash (-) response means no test result.

dayflower = test: Test F preemergence; type: in vivo, Commelina virginica; details: 21 days, scale 0 to 100
How it was run: as §2

pigweed [5] = test: Test F preemergence; type: in vivo, Amaranthus retroflexus; details: 21 days, scale 0 to 100
Description: as §3, §4

## N#Cc1cccc(Oc2ncc(Cl)cn2)c1-n1cc(OCC(F)(F)F)cn1 [Compound 274, 3-[(5-chloro-2-pyrimidinyl)oxy]-2-[4-(2,2,2-trifluoroethoxy)-1H-pyrazol-1-yl]benzonitrile]
Field violet; 16 g ai/ha, scale 0 (no effect) to 100 (complete control), read-out: Plant response rating, Field Violet
  pest or weed control at 16 g/ha: 75%
Field violet; 31 g ai/ha, scale 0-100, read-out: Plant response rating, Field Violet
  pest or weed control at 31 g/ha: 100%
Field violet; 62 g ai/ha, scale 0-100, read-out: Plant response rating, Field Violet
  pest or weed control at 62 g/ha: 100%
Field violet; 125 g ai/ha, scale 0-100, read-out: Plant response rating, Field Violet
  pest or weed control at 125 g/ha: 100%
kochia; 16 g ai/ha, scale 0 (no effect) to 100 (complete control), read-out: Plant response rating, Kochia
  pest or weed control at 16 g/ha: 0%
kochia; 31 g ai/ha, scale 0-100, read-out: Plant response rating, Kochia
  pest or weed control at 31 g/ha: 70%
kochia; 62 g ai/ha, scale 0-100, read-out: Plant response rating, Kochia
  pest or weed control at 62 g/ha: 65%
kochia; 125 g ai/ha, scale 0-100, read-out: Plant response rating, Kochia
  pest or weed control at 125 g/ha: 100%
Lambsquarters [1]; 16 g ai/ha, scale 0 (no effect) to 100 (complete control), read-out: Plant response rating, Lambsquarters
  pest or weed control at 16 g/ha: 20%
Lambsquarters [1]; 31 g ai/ha, scale 0-100, read-out: Plant response rating, Lambsquarters
  pest or weed control at 31 g/ha: 90%
Lambsquarters [1]; 62 g ai/ha, scale 0-100, read-out: Plant response rating, Lambsquarters
  pest or weed control at 62 g/ha: 100%
Lambsquarters [1]; 125 g ai/ha, scale 0-100, read-out: Plant response rating, Lambsquarters
  pest or weed control at 125 g/ha: 100%
Pigweed [2]; 16 g ai/ha, scale 0 (no effect) to 100 (complete control), read-out: Plant response rating, Pigweed
  pest or weed control at 16 g/ha: 70%
Pigweed [2]; 31 g ai/ha, scale 0 (no effect) to 100 (complete control), read-out: Plant response rating, Pigweed
  pest or weed control at 31 g/ha: 100%
Pigweed [2]; 125 g ai/ha, scale 0-100, read-out: Plant response rating, Pigweed
  pest or weed control at 125 g/ha: 100%
Wild buckwheat; 16 g ai/ha, scale 0 (no effect) to 100 (complete control), read-out: Plant response rating, Buckwheat, Wild
  pest or weed control at 16 g/ha: 10%
Wild buckwheat; 31 g ai/ha, scale 0-100, read-out: Plant response rating, Buckwheat, Wild
  pest or weed control at 31 g/ha: 100%
Wild buckwheat; 62 g ai/ha, scale 0-100, read-out: Plant response rating, Buckwheat, Wild
  pest or weed control at 62 g/ha: 100%
Wild buckwheat; 125 g ai/ha, scale 0-100, read-out: Plant response rating, Buckwheat, Wild
  pest or weed control at 125 g/ha: 100%
Wild oat; 16 g ai/ha, scale 0 (no effect) to 100 (complete control), read-out: Plant response rating, Oat, Wild
  pest or weed control at 16 g/ha: 0%
Wild oat; 31 g ai/ha, scale 0-100, read-out: Plant response rating, Oat, Wild
  pest or weed control at 31 g/ha: 0%
Wild oat; 62 g ai/ha, scale 0-100, read-out: Plant response rating, Oat, Wild
  pest or weed control at 62 g/ha: 15%
Wild oat; 125 g ai/ha, scale 0-100, read-out: Plant response rating, Oat, Wild
  pest or weed control at 125 g/ha: 25%
chickweed; 16 g ai/ha, scale 0-100, read-out: Plant response rating, Chickweed
  pest or weed control at 16 g/ha: 65%
chickweed; 31 g ai/ha, scale 0 to 100 (0 no effect, 100 complete control), read-out: Plant response rating, Chickweed
  pest or weed control at 31 g/ha: 65%
chickweed; 62 g ai/ha, scale 0 to 100 (0 no effect, 100 complete control), read-out: Plant response rating, Chickweed
  pest or weed control at 62 g/ha: 70%
chickweed; 125 g ai/ha, scale 0 to 100 (0 no effect, 100 complete control), read-out: Plant response rating, Chickweed
  pest or weed control at 125 g/ha: 80%
Lambsquarters [3]; 16 g ai/ha, scale 0-100, read-out: Plant response rating, Lambsquarters
  pest or weed control at 16 g/ha: 75%
Lambsquarters [3]; 31 g ai/ha, scale 0 to 100 (0 no effect, 100 complete control), read-out: Plant response rating, Lambsquarters
  pest or weed control at 31 g/ha: 80%
Lambsquarters [3]; 62 g ai/ha, scale 0 to 100 (0 no effect, 100 complete control), read-out: Plant response rating, Lambsquarters
  pest or weed control at 62 g/ha: 95%
Lambsquarters [3]; 125 g ai/ha, scale 0 to 100 (0 no effect, 100 complete control), read-out: Plant response rating, Lambsquarters
  pest or weed control at 125 g/ha: 95%
Pigweed [4]; 16 g ai/ha, scale 0-100, read-out: Plant response rating, Pigweed
  pest or weed control at 16 g/ha: 75%
Pigweed [4]; 31 g ai/ha, scale 0 to 100 (0 no effect, 100 complete control), read-out: Plant response rating, Pigweed
  pest or weed control at 31 g/ha: 95%
Pigweed [4]; 62 g ai/ha, scale 0 to 100 (0 no effect, 100 complete control), read-out: Plant response rating, Pigweed
  pest or weed control at 62 g/ha: 95%
Pigweed [4]; 125 g ai/ha, scale 0 to 100 (0 no effect, 100 complete control), read-out: Plant response rating, Pigweed
  pest or weed control at 125 g/ha: 95%
chamomile; 16 g ai/ha, scale 0-100, read-out: Plant response rating, Chamomile
  pest or weed control at 16 g/ha: 5%
chamomile; 31 g ai/ha, scale 0 to 100 (0 no effect, 100 complete control), read-out: Plant response rating, Chamomile
  pest or weed control at 31 g/ha: 10%
chamomile; 62 g ai/ha, scale 0 to 100 (0 no effect, 100 complete control), read-out: Plant response rating, Chamomile
  pest or weed control at 62 g/ha: 25%
chamomile; 125 g ai/ha, scale 0 to 100 (0 no effect, 100 complete control), read-out: Plant response rating, Chamomile
  pest or weed control at 125 g/ha: 25%
speedwell; 16 g ai/ha, scale 0-100, read-out: Plant response rating, Speedwell
  pest or weed control at 16 g/ha: 75%
speedwell; 31 g ai/ha, scale 0 to 100 (0 no effect, 100 complete control), read-out: Plant response rating, Speedwell
  pest or weed control at 31 g/ha: 100%
speedwell; 62 g ai/ha, scale 0 to 100 (0 no effect, 100 complete control), read-out: Plant response rating, Speedwell
  pest or weed control at 62 g/ha: 85%
speedwell; 125 g ai/ha, scale 0 to 100 (0 no effect, 100 complete control), read-out: Plant response rating, Speedwell
  pest or weed control at 125 g/ha: 100%
Large (Lg) crabgrass; 16 g ai/ha
  Plant response rating, Crabgrass, Large: 100
Large (Lg) crabgrass; 31 g ai/ha
  Plant response rating, Crabgrass, Large: 100
Large (Lg) crabgrass; 62 g ai/ha
  Plant response rating, Crabgrass, Large: 100
Large (Lg) crabgrass; 125 g ai/ha
  Plant response rating, Crabgrass, Large: 100
Large (Lg) crabgrass; 250 g ai/ha
  Plant response rating, Crabgrass, Large: 100
foxtail, green; 16 g ai/ha
  Plant response rating, Foxtail, Green: 100
foxtail, green; 31 g ai/ha
  Plant response rating, Foxtail, Green: 100
foxtail, green; 62 g ai/ha
  Plant response rating, Foxtail, Green: 100
foxtail, green; 125 g ai/ha
  Plant response rating, Foxtail, Green: 100
foxtail, green; 250 g ai/ha
  Plant response rating, Foxtail, Green: 100
signalgrass; 16 g ai/ha
  Plant response rating, Signalgrass: 75
signalgrass; 31 g ai/ha
  Plant response rating, Signalgrass: 70
signalgrass; 62 g ai/ha
  Plant response rating, Signalgrass: 100
signalgrass; 125 g ai/ha
  Plant response rating, Signalgrass: 100
signalgrass; 250 g ai/ha
  Plant response rating, Signalgrass: 100
dayflower; 16 g ai/ha
  Plant response rating, Dayflower, VA: 90
dayflower; 31 g ai/ha
  Plant response rating, Dayflower, VA: 95
dayflower; 62 g ai/ha
  Plant response rating, Dayflower, VA: 98
dayflower; 125 g ai/ha
  Plant response rating, Dayflower, VA: 100
dayflower; 250 g ai/ha
  Plant response rating, Dayflower, VA: 100
Pigweed [5]; 16 g ai/ha
  Plant response rating, Pigweed: 100
Pigweed [5]; 31 g ai/ha
  Plant response rating, Pigweed: 100
Pigweed [5]; 62 g ai/ha
  Plant response rating, Pigweed: 100
Pigweed [5]; 125 g ai/ha
  Plant response rating, Pigweed: 100
Pigweed [5]; 250 g ai/ha
  Plant response rating, Pigweed: 100
